Activity calls are given as the source filed them.
Columns and labels:
[1] = Trypanosoma cruzi growth suppression in host cells – NIH3T3 host cells, beta-gal luminescence, confirmation (AID 2044); type: functional, cell-based;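 further: intracellular parasites grown in NIH/3T3 mouse fibroblasts as host cells; luminescent beta-galactosidase reporter signal from transgenic T. cruzi replicating inside host cells; inhibitors lower the luminescence signal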
[2] = NIH3T3 cell viability loss – ATP luminescence, mouse fibroblasts, counter-screen, dose response (AID 2010); type: functional, cell-based;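 further: cells exposed to compound for about 90 hours before reading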
Estrogen receptor beta [3] = molecular target: T1, Estrogen receptor beta (Homo sapiens, UniProt Q92731);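 further: recombinant ER-beta bound to coactivator SRC1 peptide in presence of estradiol agonist; inhibitors block coactivator peptide binding and lower the FRET signal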
Estrogen receptor beta [4] = molecular target: T1, Estrogen receptor beta; test: blockers of SRC-3 recruitment to ERβ – biochemical, ELISA, streptavidin-HRP readout, orthogonal assay, confirmation (AID 1060)
[5] = molecular target: T2, Carboxy-terminal domain RNA polymerase II polypeptide A small phosphatase 1 (Homo sapiens, UniProt Q9GZU7); test: CTDSP1 inhibitors, concentration-response, biochemical, absorbance readout, ultra-high-throughput screen actives (AID 540297); type: functional
T2 sequence (Q9GZU7 whole entry): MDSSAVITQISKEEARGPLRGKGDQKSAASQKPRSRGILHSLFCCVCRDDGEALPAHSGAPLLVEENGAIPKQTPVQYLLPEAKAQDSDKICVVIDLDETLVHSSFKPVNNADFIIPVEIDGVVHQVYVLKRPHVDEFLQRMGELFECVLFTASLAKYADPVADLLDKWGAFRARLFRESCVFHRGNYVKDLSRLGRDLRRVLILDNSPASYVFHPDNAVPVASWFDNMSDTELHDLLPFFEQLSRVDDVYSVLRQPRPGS

[6] = HIV-1 Vif–A3G interaction blockers – biochemical, TR-FRET, GST-Vif 1-94, biotin-A3G peptide, dose response retest, primary screen (AID 1117319); type: functional;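 further: TR-FRET signal of purified GST-Vif binding a biotinylated A3G peptide; inhibitors lower the FRET signal by blocking Vif and A3G binding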
[7] = molecular target: 5-hydroxytryptamine receptor 1A (Homo sapiens, UniProt P08908); type: functional
[8] = molecular target: Potassium voltage-gated channel subfamily KQT member 2 (Rattus norvegicus, UniProt O88943, W236L); test: potentiation of rat KCNQ2 current – cell-based, automated electrophysiology, mechanism study for KCNQ2 potentiator project, dose response (AID 2603); type: functional
Bcl-2-related protein A1 = molecular target: T3, Bcl-2-related protein A1 (Mus musculus, UniProt Q07440); type: functional;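 further: confirmatory dose–response counterscreen on Bfl-1, used to check hits from a UBC13 polyubiquitin inhibitor campaign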
T3 sequence (Q07440 whole entry): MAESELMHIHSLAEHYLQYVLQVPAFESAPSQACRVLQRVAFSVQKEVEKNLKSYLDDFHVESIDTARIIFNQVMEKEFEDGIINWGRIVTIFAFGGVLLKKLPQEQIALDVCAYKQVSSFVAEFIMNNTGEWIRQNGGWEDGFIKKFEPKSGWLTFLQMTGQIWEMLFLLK

[9] = molecular target: T4, Ubiquitin-conjugating enzyme E2 N (Homo sapiens, UniProt P61088); type: functional
T4 sequence (P61088 whole entry): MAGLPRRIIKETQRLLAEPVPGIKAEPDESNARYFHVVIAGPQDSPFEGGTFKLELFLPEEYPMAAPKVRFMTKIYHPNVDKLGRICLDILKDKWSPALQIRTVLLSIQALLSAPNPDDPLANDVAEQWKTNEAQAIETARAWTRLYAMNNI

[10] = molecular target: T4, Ubiquitin-conjugating enzyme E2 N; type: functional; remark: listed apart in the source
[11] = molecular target: T5, High affinity choline transporter 1 (Homo sapiens, UniProt Q9GZV3); test: human choline transporter blockers, potency – cell-based, 5-point CRC, membrane potential dye, dose response (AID 504840); type: functional
T5 sequence (Q9GZV3 whole entry): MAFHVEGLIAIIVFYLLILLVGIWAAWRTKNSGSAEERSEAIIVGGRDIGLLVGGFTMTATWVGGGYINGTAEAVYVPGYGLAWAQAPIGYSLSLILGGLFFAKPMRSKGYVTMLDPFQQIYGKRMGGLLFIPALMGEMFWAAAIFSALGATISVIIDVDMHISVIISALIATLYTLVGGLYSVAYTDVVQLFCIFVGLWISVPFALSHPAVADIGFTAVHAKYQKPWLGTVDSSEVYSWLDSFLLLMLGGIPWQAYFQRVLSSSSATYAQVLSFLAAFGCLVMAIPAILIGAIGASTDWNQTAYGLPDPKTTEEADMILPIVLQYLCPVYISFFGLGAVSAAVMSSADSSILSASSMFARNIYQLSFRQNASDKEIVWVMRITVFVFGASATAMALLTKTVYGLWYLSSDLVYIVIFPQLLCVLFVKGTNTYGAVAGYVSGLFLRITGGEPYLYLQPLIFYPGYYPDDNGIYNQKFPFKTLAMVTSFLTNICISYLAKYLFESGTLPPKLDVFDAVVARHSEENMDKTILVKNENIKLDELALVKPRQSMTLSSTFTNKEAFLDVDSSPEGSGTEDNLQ

Vero = test: viability of Vero cells under compound – cytotoxicity control for flavivirus capping enzyme inhibitors (AID 588742); type: functional; conditions: Chlorocebus sabaeus
Protein RecA = molecular target: T6, Protein RecA (Mycobacterium tuberculosis, UniProt P9WHJ3); test: Fluorescence Cell-Free Homogeneous Dose Retest to Identify Inhibitors of RecA-Intein Splicing Activity. [Related pubchem assays (depositor defined):AID2097, AID2223, AID489010, AID492950]; type: functional
T6 sequence (P9WHJ3 whole entry): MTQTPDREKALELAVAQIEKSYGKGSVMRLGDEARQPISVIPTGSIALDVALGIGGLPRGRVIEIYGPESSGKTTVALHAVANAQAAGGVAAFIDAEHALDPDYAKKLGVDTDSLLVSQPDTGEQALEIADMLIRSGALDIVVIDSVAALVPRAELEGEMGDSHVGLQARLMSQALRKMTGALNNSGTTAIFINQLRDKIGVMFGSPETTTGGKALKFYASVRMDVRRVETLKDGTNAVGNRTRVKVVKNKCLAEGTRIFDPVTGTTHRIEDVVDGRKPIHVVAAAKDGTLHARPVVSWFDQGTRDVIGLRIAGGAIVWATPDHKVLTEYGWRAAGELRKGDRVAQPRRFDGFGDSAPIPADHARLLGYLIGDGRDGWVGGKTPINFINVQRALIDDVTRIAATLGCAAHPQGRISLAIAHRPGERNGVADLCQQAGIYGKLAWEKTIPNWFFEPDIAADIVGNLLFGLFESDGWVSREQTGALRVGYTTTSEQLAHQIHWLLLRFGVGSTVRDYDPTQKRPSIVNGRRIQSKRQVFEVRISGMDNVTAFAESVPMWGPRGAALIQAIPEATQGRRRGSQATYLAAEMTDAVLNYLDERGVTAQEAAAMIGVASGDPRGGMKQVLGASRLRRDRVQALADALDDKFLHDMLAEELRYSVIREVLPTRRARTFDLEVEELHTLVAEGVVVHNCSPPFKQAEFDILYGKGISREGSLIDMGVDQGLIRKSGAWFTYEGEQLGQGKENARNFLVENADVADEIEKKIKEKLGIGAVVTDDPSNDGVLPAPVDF

[12] = molecular target: T5, High affinity choline transporter 1; test: human choline transporter blockers, potency – cell-based, 10-point CRC, membrane potential dye, dose response (AID 588401); type: functional;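 further: membrane potential dye fluorescence of choline-evoked depolarization via CHT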
Genome polyprotein = Genome polyprotein (dengue virus type 2, UniProt P29990); test: flavivirus cap methylation enzyme inhibition – biochemical, confirmation dose response, primary screen (AID 588689); type: functional
[13] = reduction of Shn3 3'UTR-driven luciferase in osteoblasts – cell-based, Clone20 osteoblasts, firefly luciferase, cherry-picked, dose response (AID 624132); type: functional;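 further: firefly luciferase luminescence from reporter carrying the Shn3 3'UTR in osteoblasts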
[14] = loss of viability in HepG2 cells – cell-based, CellTiter-Glo, cherry-picked, cytotoxicity control for Shn3 inhibitor project, dose response (AID 624134); type: functional
[15] = non-specific 3'UTR reporter inhibition in Clone20-Shn3RL – cell-based, Renilla luciferase, cherry-picked, counter-screen for Shn3 inhibitor project, dose response (AID 624133); type: functional
[16] = molecular target: T7, Hepatocyte nuclear factor 4-alpha (Homo sapiens, UniProt P41235); type: functional, cell-based;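 further: biochemical luminescence-based dose-response counterscreen measuring inhibition of HNF4 dimerization, run alongside a screen for blockers of ABHD5–perilipin-5 interaction; split luciferase complementation of HNF4 fusion proteins in cell lysate measuring dimerization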
T7 sequence (P41235 whole entry): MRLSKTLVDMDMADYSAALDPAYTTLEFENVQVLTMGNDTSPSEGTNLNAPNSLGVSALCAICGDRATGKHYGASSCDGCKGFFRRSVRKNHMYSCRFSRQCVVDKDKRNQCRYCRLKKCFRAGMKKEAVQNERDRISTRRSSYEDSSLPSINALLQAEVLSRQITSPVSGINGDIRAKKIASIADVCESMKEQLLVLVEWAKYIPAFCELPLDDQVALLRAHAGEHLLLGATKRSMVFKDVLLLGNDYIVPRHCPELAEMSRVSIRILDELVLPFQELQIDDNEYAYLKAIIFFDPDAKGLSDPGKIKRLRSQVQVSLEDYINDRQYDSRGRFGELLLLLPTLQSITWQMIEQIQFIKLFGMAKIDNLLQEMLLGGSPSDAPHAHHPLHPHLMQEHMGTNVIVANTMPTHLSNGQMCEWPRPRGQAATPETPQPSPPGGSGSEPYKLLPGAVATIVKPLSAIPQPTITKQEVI

[17] = molecular target: ATP-binding cassette sub-family B member 6 (Homo sapiens, UniProt Q9NP58); test: ABCB6 transporter inhibitors, porphyrin accumulation, dose response, flow cytometry, K562-ABCB6 cells, cherry pick 02 (AID 624487); type: functional; conditions: read-out: EC50_MICROM
NADPH oxidase 1 = NADPH oxidase 1 (Homo sapiens, UniProt Q9Y5S8); type: functional, cell-based;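 further: Cell-based assay with luminescence read-out, IC50 derived from inhibitor dose-response curves; intracellular ROS from endogenous NOX1 in intact HT29 colon cancer cells; potency of inhibitors that lower the ROS luminescence signal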
[18] = molecular target: T8, Mannose-6-phosphate isomerase (Homo sapiens, UniProt P34949); test: MPI enzyme activity inhibition – biochemical, fluorescence intensity, coupled assay, primary screen (AID 1209)
T8 sequence (P34949 whole entry): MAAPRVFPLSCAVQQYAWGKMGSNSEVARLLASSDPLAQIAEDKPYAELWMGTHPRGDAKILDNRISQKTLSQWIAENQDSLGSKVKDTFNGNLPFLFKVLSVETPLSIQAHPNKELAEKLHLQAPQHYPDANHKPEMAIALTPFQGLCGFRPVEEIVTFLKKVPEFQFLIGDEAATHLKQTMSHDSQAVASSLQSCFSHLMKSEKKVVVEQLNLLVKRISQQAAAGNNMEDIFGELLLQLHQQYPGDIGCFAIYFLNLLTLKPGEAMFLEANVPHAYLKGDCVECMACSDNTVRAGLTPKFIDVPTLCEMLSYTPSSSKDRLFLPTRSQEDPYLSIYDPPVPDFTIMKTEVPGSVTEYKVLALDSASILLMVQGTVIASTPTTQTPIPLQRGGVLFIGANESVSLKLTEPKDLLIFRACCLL

[19] = Luminescence Cell-Based Dose Retest to Confirm Inhibitors of Cancer Stem Cells. [Related pubchem assays (depositor defined):AID2717, AID2721]; type: functional; conditions: Homo sapiens
INS1 = test: INS-1E survival protection against cytokine death – cell-based, luminescence, retest, dose response (AID 449756); type: functional; conditions: Rattus norvegicus;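 further: cell death triggered by IL-1 beta plus TNF-alpha plus IFN-gamma mixture; protective hits raise ATP signal compared with cytokine alone wells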

T1 sequence (Q92731 whole entry): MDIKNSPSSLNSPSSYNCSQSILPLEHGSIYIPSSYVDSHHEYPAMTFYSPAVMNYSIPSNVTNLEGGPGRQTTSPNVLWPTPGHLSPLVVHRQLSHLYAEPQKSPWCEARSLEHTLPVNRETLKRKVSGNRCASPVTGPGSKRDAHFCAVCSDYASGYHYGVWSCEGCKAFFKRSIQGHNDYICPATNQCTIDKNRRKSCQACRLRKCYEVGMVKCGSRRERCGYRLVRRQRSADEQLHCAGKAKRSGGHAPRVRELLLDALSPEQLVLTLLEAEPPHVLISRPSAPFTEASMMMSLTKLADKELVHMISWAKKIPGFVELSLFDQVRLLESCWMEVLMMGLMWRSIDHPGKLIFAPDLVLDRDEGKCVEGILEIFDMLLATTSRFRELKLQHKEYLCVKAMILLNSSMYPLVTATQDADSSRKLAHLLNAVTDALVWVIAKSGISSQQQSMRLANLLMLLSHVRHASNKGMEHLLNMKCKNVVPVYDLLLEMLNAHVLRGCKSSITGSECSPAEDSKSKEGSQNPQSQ
NADPH oxidase 1, sequence (Q9Y5S8 whole entry): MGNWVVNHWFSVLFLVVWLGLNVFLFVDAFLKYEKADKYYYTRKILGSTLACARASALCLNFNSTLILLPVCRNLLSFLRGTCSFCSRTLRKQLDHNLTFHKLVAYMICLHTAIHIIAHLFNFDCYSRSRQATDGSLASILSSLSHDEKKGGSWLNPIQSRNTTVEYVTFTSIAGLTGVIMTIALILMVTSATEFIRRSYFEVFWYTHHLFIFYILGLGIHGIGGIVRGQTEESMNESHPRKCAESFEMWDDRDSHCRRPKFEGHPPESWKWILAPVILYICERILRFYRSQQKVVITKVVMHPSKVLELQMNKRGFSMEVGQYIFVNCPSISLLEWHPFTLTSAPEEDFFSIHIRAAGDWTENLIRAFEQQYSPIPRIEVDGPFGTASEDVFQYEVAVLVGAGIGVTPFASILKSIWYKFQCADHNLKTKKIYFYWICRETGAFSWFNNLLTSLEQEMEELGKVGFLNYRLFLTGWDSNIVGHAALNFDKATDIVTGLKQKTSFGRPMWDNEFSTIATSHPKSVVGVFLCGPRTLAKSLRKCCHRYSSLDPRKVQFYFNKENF
Potassium voltage-gated channel subfamily KQT member 2, sequence (O88943 whole entry W236L): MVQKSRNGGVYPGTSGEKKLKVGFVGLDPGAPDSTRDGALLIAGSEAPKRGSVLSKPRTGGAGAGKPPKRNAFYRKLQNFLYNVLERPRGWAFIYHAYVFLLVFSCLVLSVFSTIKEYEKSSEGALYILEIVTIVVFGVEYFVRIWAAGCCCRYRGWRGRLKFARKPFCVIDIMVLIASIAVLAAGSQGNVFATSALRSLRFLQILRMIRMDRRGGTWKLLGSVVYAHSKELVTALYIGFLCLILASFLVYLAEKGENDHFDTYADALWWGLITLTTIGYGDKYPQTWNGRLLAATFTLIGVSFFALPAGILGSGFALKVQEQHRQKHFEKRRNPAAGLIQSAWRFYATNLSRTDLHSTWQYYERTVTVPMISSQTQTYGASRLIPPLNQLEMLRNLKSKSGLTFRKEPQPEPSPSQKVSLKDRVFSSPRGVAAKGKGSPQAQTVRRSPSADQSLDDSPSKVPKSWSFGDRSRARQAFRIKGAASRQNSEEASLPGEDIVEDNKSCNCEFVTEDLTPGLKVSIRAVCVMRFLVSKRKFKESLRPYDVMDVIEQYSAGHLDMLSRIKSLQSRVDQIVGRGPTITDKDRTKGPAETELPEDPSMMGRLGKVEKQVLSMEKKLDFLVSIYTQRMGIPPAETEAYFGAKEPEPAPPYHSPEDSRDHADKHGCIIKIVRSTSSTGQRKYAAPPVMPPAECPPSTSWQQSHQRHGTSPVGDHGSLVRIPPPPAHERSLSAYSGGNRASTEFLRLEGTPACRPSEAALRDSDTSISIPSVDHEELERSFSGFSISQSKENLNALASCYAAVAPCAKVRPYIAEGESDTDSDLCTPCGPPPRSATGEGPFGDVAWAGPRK
5-hydroxytryptamine receptor 1A, sequence (P08908 whole entry): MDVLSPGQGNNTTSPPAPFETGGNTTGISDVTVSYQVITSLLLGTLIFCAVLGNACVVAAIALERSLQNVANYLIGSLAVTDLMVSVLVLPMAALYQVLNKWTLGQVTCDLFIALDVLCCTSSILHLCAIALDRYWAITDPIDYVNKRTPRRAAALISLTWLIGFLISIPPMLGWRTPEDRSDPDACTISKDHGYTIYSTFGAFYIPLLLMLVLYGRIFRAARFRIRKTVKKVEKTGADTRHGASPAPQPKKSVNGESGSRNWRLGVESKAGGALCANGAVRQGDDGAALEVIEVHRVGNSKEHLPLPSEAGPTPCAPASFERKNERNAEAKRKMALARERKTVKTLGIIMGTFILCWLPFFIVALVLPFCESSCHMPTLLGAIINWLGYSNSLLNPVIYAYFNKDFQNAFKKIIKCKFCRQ
Genome polyprotein, sequence (P29990 2492-3391 limits assumed): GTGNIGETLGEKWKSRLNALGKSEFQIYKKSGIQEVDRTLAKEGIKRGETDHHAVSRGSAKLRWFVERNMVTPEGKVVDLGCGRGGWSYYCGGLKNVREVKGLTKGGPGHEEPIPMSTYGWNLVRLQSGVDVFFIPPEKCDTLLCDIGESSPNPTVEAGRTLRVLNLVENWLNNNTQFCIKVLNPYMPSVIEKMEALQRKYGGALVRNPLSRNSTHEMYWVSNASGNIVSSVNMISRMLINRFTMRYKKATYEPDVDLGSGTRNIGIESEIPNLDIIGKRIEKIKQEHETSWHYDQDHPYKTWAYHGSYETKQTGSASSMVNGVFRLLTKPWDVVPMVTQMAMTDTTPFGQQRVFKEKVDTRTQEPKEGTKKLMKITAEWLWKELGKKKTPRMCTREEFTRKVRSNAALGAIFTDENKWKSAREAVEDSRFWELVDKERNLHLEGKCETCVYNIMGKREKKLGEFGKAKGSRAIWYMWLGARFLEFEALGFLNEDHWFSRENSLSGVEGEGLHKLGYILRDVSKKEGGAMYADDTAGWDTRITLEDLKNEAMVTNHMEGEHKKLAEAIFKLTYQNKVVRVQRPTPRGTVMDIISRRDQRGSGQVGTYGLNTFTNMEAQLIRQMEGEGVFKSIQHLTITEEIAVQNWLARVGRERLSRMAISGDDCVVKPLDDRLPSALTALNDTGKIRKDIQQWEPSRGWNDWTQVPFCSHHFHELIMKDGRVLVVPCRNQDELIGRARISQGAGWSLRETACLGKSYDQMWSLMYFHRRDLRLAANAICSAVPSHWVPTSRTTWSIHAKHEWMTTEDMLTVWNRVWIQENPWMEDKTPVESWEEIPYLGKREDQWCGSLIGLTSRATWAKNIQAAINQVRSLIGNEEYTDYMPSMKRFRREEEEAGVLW
ATP-binding cassette sub-family B member 6, sequence (Q9NP58 whole entry): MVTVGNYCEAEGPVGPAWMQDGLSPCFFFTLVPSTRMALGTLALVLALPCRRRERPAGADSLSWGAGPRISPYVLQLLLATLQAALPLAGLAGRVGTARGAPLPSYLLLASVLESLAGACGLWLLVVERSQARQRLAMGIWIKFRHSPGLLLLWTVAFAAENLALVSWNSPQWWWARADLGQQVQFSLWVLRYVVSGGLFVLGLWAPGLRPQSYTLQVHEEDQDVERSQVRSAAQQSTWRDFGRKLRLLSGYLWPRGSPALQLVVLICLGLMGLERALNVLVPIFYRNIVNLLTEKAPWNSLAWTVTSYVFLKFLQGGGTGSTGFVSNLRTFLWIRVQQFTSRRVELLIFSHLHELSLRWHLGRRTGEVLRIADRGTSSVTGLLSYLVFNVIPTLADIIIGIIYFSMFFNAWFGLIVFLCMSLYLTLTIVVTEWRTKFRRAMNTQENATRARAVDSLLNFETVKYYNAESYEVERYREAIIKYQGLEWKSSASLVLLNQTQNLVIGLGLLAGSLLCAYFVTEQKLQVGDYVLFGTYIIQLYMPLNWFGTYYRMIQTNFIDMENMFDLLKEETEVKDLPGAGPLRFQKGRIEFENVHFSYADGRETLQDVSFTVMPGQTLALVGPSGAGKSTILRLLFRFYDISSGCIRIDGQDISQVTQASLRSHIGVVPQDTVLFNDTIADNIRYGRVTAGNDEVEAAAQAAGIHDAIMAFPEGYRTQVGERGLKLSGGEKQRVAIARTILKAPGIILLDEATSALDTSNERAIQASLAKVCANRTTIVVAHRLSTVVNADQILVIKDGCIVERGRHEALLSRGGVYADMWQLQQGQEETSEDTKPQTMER

In the case of O=C(CCC1CCCN(Cc2ccc3c(c2)OCCO3)C1)NCc1ccc(F)c(F)c1 (stereo not drawn), the EC50 [1] is reported as < 0.1 µM (active), the EC50 [2] is reported as > 60 µM (not active) and the EC50 (cells) is reported as 0.033 µM (active).
For CCCCN(CCCC)S(=O)(=O)c1ccc(NC(=O)Cc2cccs2)cc1, the IC50 (Estrogen receptor beta [3]) was 18.8 µM (active), the IC50 (Estrogen receptor beta [4]) was 1.05 µM (not active) and the IC50 [5] was 7.14 µM (active). The IC50 [6] was > 100 µM (active).
For CCN1CC=C(c2c[nH]c3ccccc23)CC1, the EC50 [7] was > 50 µM (not active).
In the case of CCCc1nnc(NC(=O)c2nc(S(=O)(=O)Cc3cccc(C)c3)ncc2Cl)s1, the EC50 [8] is reported as 2.89 µM (active), the IC50 (Bcl-2-related protein A1) is reported as > 20 µM (inactive) and the IC50 [9] is reported as 12.3 µM (active). The IC50 [10] was > 20 µM (inactive), the IC50 [11] was 3.9 µM (active) and the CC50 (Vero) was > 40 µM (active). The EC50 (Protein RecA) was > 380 µM (inactive), the IC50 [12] was 3.16 µM (active) and the IC50 (Genome polyprotein) was > 100 µM (active). For the same compound, the AC50 [13] was 2.55 µM (active), the AC50 [14] was > 70 µM (inactive) and the AC50 [15] was 10 µM (active). The IC50 [16] was 5.71 µM (active) and the EC50 [17] was 60.6 µM (active).
For O=[N+]([O-])c1ccccc1-c1nc(-c2ccccc2)c(-c2ccccc2)[nH]1, the IC50 (NADPH oxidase 1) was > 17 µM (not active).
For CC1=[N+](C)c2ccc3ccccc3c2C1(C)C, the IC50 [18] was > 50 µM (not active), the EC50 [1] was 2.83 µM (active) and the EC50 [2] was > 60 µM (not active). The AC50 [19] was 27.4 µM (active) and the AC50 (INS1) was 6.8 µM (active).
